# Data published in patent US20210038559A1, “CANNABINOIDS AND DERIVATIVES FOR PROMOTING IMMUNOGENICITY OF TUMOR AND INFECTED CELLS” (priority 2018, published 2021).
# Where a name gives a salt, the structure may show the parent alone.
# Test system: MHC-I expression by COLO 205 cells
# Assay: cells
# Assay type: cell-based, human
# Settings: not given
# Procedure: A panel of synthetic cannabinoids (Cayman Chemical, #9002891) was tested for MHC class I-inducing capability in COLO 205 cells as described above. COLO 205 cells were treated with the compounds at a concentration of 35 μM and evaluated for cell surface MHC class I expression after 48 hours. Cells were harvested, stained with MHC-I mAb W6/32 (Thermo Fisher). MHC-I expression was determined by flow cytometry.
row,Structure (SMILES),Induction Fold [Fold]
1,"CCCCCn1cc(C(=O)c2cccc3ccccc23)cc1-c1ccccc1F [Example 85, [5-(2-fluorophenyl)-1-pentyl-1H-pyrrol-3-yl]-1-naphthalenyl-methanone]",2.52
2,"CCCCCn1cc(C(=O)NC23CC4CC(CC(C4)C2)C3)c2ccccc21 [Example 108, 1-pentyl-N-tricyclo[3.3.1.1]dec-1-yl-1H-indole-3-carboxamide]",2.38
3,"CCCCn1c(C)c(C(=O)c2cccc3ccccc23)c2ccccc21 [Example 122, (1-butyl-2-methyl-1H-indol-3-yl)-1-naphthalenyl-methanone]",2.31

# Same assay, conditions: Homo sapiens, COLO 205, 48 h, MHC-I expression, COLO 205 cells, compounds at 35 μM, 48 hours, flow cytometry (W6/32); read-out: Induction Fold
row,Structure (SMILES),fold induction at 35 µM
1,"CCCCCn1cc(C(=O)Cc2cccc(Cl)c2)c2ccccc21 [Example 86, 2-(3-chlorophenyl)-1-(1-pentyl-1H-indol-3-yl)-ethanone]",2.51
2,"CCCCCn1cc(C(=O)c2cccc3cccc(Br)c23)c2ccccc21 [Example 87, (8-bromonaphthalen-1-yl)(1-pentyl-1H-indol-3-yl)methanone]",2.51
3,"CCCCCn1cc(C(=O)NC(C(N)=O)C(C)(C)C)c2ccccc21 (centres unmarked) [Example 88, N-(1-amino-3,3-dimethyl-1-oxobutan-2-yl)-1-pentyl-1H-indole-3-carboxamide]",2.5
4,"CCCCCn1cc(C(=O)c2c(CC)ccc3ccccc23)c2ccccc21 [Example 89, (2-ethylnaphthalen-1-yl)(1-pentyl-1H-indol-3-yl)methanone]",2.5
5,"CCCCCn1cc(C(=O)c2c(OC)ccc3ccccc23)c2ccccc21 [Example 90, (2-methoxy-1-naphthalenyl)(1-pentyl-1H-indol-3-yl)-methanone]",2.5
6,"CCCCCn1cc(C(=O)NCc2ccccc2)c2ccccc21 [Example 91, 1-pentyl-N-(phenylmethyl)-1H-indole-3-carboxamide]",2.48
7,"O=C(Oc1ccnc2ccccc12)c1cn(CCCCCF)c2ccccc12 [Example 92, quinolin-4-yl 1-(5-fluoropentyl)-1H-indole-3-carboxylate]",2.47
8,"CCCCCn1cc(C(=O)C2C(C)(C)C2(C)C)c2ccccc21 [Example 94, (1-pentyl-1H-indol-3-yl)(2,2,3,3-tetramethylcyclopropyl)-methanone]",2.45
9,"CC(C)[C@H](NC(=O)c1cn(CC2CCCCC2)c2ccccc12)C(N)=O [Example 96, (S)-N-(1-amino-3-methyl-1-oxobutan-2-yl)-1-(cyclohexylmethyl)-1H-indole-3-carboxamide]",2.44
10,"O=C(c1cccc2ccccc12)c1nn(CCCCCBr)c2ccccc12 [Example 97, (1-(5-bromopentyl)-1H-indazol-3-yl)(naphthalen-1-yl)methanone]",2.44
11,"CCCCCn1cc(C(=O)Oc2cccc3cnccc23)c2ccccc21 [Example 99, isoquinolin-5-yl 1-pentyl-1H-indole-3-carboxylate]",2.43
12,"CCCCCn1nc(C(=O)N[C@H](C(N)=O)C(C)C)c2ccccc21 [Example 100, (S)-N-(1-amino-3-methyl-1-oxobutan-2-yl)-1-pentyl-1H-indazole-3-carboxamide]",2.43
13,"CCCCCn1cc(C(=O)Cc2ccccc2C)c2ccccc21 [Example 101, 2-(2-methylphenyl)-1-(1-pentyl-1H-indol-3-yl)-ethanone]",2.42
14,"CC(F)CCCn1cc(C(=O)Oc2cccc3cccnc23)c2ccccc21 (centres unmarked) [Example 102, quinolin-8-yl 1-(4-fluoropentyl)-1H-indole-3-carboxylate]",2.41
15,"CCC(C)(C)n1cc(C(=O)c2cccc3ccccc23)c2ccccc21 [Example 103, naphthalen-1-yl(1-(tert-pentyl)-1H-indol-3-yl)methanone]",2.41
16,"CCCC(F)Cn1cc(C(=O)c2cccc3ccccc23)c2ccccc21 (centres unmarked) [Example 104, (1-(2-fluoropentyl)-1H-indol-3-yl)(naphthalen-1-yl)methanone]",2.41
17,"O=C(Oc1cccc2cnccc12)c1cn(CCCCCF)c2ccccc12 [Example 105, isoquinolin-5-yl 1-(5-fluoropentyl)-1H-indole-3-carboxylate]",2.4
18,"CCCCCn1cc(C(=O)Cc2ccccc2OC)c2ccccc21 [Example 106, 1-(1-pentyl-1H-indol-3-yl)-2-(2-methoxyphenyl)-ethanone]",2.39

row,Structure (SMILES),fold induction at 35 µM
1,"CC1(C)C(C(=O)c2cn(CCCC(F)(F)F)c3ccccc23)C1(C)C [Example 110, (2,2,3,3-tetramethylcyclopropyl)[1-(4,4,4-trifluorobutyl)-1H-indol-3-yl]-methanone]",2.37
2,"CC1(C)C(C(=O)N/N=C2\C(=O)N(CCCCCF)c3ccccc32)C1(C)C [Example 111, 2,2,3,3-tetramethyl-cyclopropanecarboxylic acid (2Z)-2-[1-(5-fluoropentyl)-1,2-dihydro-2-oxo-3H-indol-3-ylidene]hydrazide]",2.37
3,"O=C(c1ccc(F)c2ccccc12)c1cn(CCCCCF)c2ccccc12 [Example 112, (4-fluoro-1-naphthalenyl)[1-(5-fluoropentyl)-1H-indol-3-yl]-methanone]",2.37
4,"CC(Cl)CCCn1cc(C(=O)C2C(C)(C)C2(C)C)c2ccccc21 (centres unmarked) [Example 113, (1-(4-chloropentyl)-1H-indol-3-yl)(2,2,3,3-tetramethylcyclopropyl)methanone]",2.36
5,"CCC(Cl)CCn1cc(C(=O)c2cccc3ccccc23)c2ccccc21 (centres unmarked) [Example 114, (1-(3-chloropentyl)-1H-indol-3-yl)(naphthalen-1-yl)methanone]",2.35
6,"CCCCCn1cc(C(=O)c2cccc3cccc(CC)c23)c2ccccc21 [Example 115, (8-ethylnaphthalen-1-yl)(1-pentyl-1H-indol-3-yl)methanone]",2.35
7,"O=C(c1cccnc1)c1cn(CCCCCF)c2ccccc12 [Example 116, (1-(5-fluoropentyl)-1H-indol-3-yl)(pyridin-3-yl)methanone, monohydrochloride]",2.34
8,"CCCCCCCn1cc(C(=O)C2C(C)(C)C2(C)C)c2ccccc21 [Example 118, (1-heptyl-1H-indol-3-yl)(2,2,3,3-tetramethylcyclopropyl)-methanone]",2.33
9,"CC(C)(C)C(NC(=O)c1cc(-c2ccc(F)cc2)nn1CCCCCF)C(N)=O (centres unmarked) [Example 119, N-[1-(aminocarbonyl)-2,2-dimethylpropyl]-1-(5-fluoropentyl)-3-(4-fluorophenyl)-1H-pyrazole-5-carboxamide]",2.33
10,"CCCCCn1cc(C(=O)Cc2ccccc2Br)c2ccccc21 [Example 120, 2-(2-bromophenyl)-1-(1-pentyl-1H-indol-3-yl)-ethanone]",2.32
11,"COc1ccc2c(c1)c(CC(=O)N1CCOCC1)c(C)n2C(=O)c1ccc(Cl)cc1 [Example 121, 2-[1-(4-chlorobenzoyl)-5-methoxy-2-methyl-1H-indol-3-yl]-1-(4-morpholinyl)-ethanone]",2.32
12,"CCCCCn1c(C(=O)c2cccc3ccccc23)nc2ccccc21 [Example 123, naphthalen-1-yl(1-pentyl-1H-benzo[d]imidazol-2-yl)methanone]",2.31
13,"O=C(Oc1cncc2ccccc12)c1cn(CC2CCCCC2)c2ccccc12 [Example 124, isoquinolin-4-yl 1-(cyclohexylmethyl)-1H-indole-3-carboxylate]",2.3
14,"Cc1c(C(=O)C2C(C)(C)C2(C)C)c2ccccc2n1CCCCCF [Example 126, (1-(5-fluoropentyl)-2-methyl-1H-indol-3-yl)(2,2,3,3-tetramethylcyclopropyl)methanone]",2.29
15,"CCC(C)n1cc(C(=O)c2cccc3ccccc23)c2ccccc21 (centres unmarked) [Example 127, (1-(sec-butyl)-1H-indol-3-yl)(naphthalen-1-yl)methanone]",2.29
16,"CCC(F)CCn1cc(C(=O)c2cccc3ccccc23)c2ccccc21 (centres unmarked) [Example 128, (1-(3-fluoropentyl)-1H-indol-3-yl)(naphthalen-1-yl)methanone]",2.28
17,"CCCCCn1cc(C(=O)c2ccc(OC)cc2)c2ccccc21 [Example 129, (4-methoxyphenyl)(1-pentyl-1H-indol-3-yl)methanone]",2.27
18,"O=C(c1cccc(I)c1)c1cn(CCCCCF)c2ccccc12 [Example 130, (1-(5-fluoropentyl)-1H-indol-3-yl)(3-iodophenyl)methanone]",2.26

# Same assay, conditions: MHC-I expression, COLO 205 cells, compounds at 35 μM, 48 hours, flow cytometry (W6/32)
row,Structure (SMILES),Induction Fold [Fold]
1,"CN1CCCCC(n2cc(C(=O)C34CC5CC(CC(C5)C3)C4)c3ccccc32)C1 (centres unmarked) [Example 93, (3,5,7)-adamantan-1-yl(1-(1-methylazepan-3-yl)-1H-indol-3-yl)methanone]",2.46
2,"COCCn1c(C)c(C)sc1=NC(=O)C1C(C)(C)C1(C)C [Example 95, [N(Z)]-N-[3-(2-methoxyethyl)-4,5-dimethyl-2(3H)-thiazolylidene]-2,2,3,3-tetramethyl-cyclopropanecarboxamide]",2.44
3,"CCCCCn1c(C)c(C(=O)c2cccc3ccccc23)c2ccccc21 [Example 98, (2-methyl-1-pentyl-1H-indol-3-yl)-1-naphthalenyl-methanone]",2.43
4,"O=C(NC12CC3CC(CC(C3)C1)C2)c1nn(Cc2ccc(F)cc2)c2ccccc12 [Example 117, N-((3s,5s,7s)-adamantan-1-yl)-1-(4-fluorobenzyl)-1H-indazole-3-carboxamide]",2.34
5,"CCCCCCN1C(=O)/C(=N\NC(=O)c2ccccc2)c2ccccc21 [Example 125, (2Z)-2-(1-hexyl-1,2-dihydro-2-oxo-3H-indol-3-ylidene)hydrazide, benzoic acid]",2.29
